Data as given in patent US20230111310A1, “CARBOXYLIC ACID DERIVATIVE-SUBSTITUTED IMINO ARYL COMPOUND, PREPARATION METHOD THEREFOR, HERBICIDAL COMPOSITION AND USE THEREOF” (Qingdao Kingagroot Chemical Compound Co., Ltd., priority 2020, published 2023).

What follows are molecules tested on Abutilon theophrasti (assay: Weeding effect in post-emergence stage). Details: Dose 15 g/ha; fresh weight control rate level.
Assay type: in vivo
Outline: (§1)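 Seeds are sown in soil-filled pots under 0.5-2 cm soil and grown 2 weeks in greenhouse. Plants at 2-3 leaves are sprayed with compound (acetone, Tween 80, 1.5 liter/ha methyl oleate EC, water) at 7.5 to 500 g/ha. Damage is rated 3 weeks later, averaging three repeats.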

SMILES | Weeding effect in post-emergence stage, Abutilon theophrasti (level)
C/C(=N\OC(=O)[C@@H](C)O/N=C/c1cc(-n2c(=O)cc(C(F)(F)F)n(C)c2=O)c(F)cc1Cl)C(C)(C)C [449(R)] | 5 (Level 5: growth control rate is above 85%)
C/C(=N\OC(=O)[C@@H](C)O/N=C/c1cc(-n2c(=O)cc(C(F)(F)F)n(C)c2=O)c(F)cc1Cl)C1CC1 [450(R)] | 5 (Level 5: growth control rate is above 85%)
COC(=O)[C@@H](CC(C)C)O/N=C/c1cc(-n2c(=O)cc(C(F)(F)F)n(C)c2=O)c(F)cc1Cl [455(R)] | 5 (Level 5: growth control rate is above 85%)
COC(=O)[C@@H](CC1CC1)O/N=C/c1cc(-n2c(=O)cc(C(F)(F)F)n(C)c2=O)c(F)cc1Cl [462(R)] | 5 (Level 5: growth control rate is above 85%)
COC(=O)[C@H](CF)O/N=C/c1cc(-n2c(=O)cc(C(F)(F)F)n(C)c2=O)c(F)cc1Cl [463(R)] | 5 (Level 5: growth control rate is above 85%)

Same assay, conditions: Dose 30 g/ha; fresh weight control rate level

SMILES | Weeding effect in post-emergence stage, Abutilon theophrasti (level)
C/C(=N/C(=O)[C@@H](C)O/N=C/c1cc(-n2c(=O)cc(C(F)(F)F)n(C)c2=O)c(F)cc1Cl)c1ccccc1 [453(R)] | 5 (Level 5: growth control rate is above 85%)
COC(=O)[C@H](O/N=C/c1cc(-n2c(=O)cc(C(F)(F)F)n(C)c2=O)c(F)cc1Cl)C1CC1 [456(R)] | 5 (Level 5: growth control rate is above 85%)

Same assay, conditions: Dose 60 g/ha; fresh weight control rate level

SMILES | Weeding effect in post-emergence stage, Abutilon theophrasti (level)
C[C@@H](O/N=C/c1cc(-n2c(=O)cc(C(F)(F)F)n(C)c2=O)c(F)cc1Cl)C(=O)N1CCOCC1 [454(R)] | 5 (Level 5: growth control rate is above 85%)

What follows are molecules tested on Alopecurus japonicus (assay: Weeding effect in post-emergence stage). Details: Dose 15 g/ha; fresh weight control rate level.
Assay type: in vivo
Outline: as §1

SMILES | Weeding effect in post-emergence stage, Alopecurus japonicus (level)
C/C(=N\OC(=O)[C@@H](C)O/N=C/c1cc(-n2c(=O)cc(C(F)(F)F)n(C)c2=O)c(F)cc1Cl)C(C)(C)C [449(R)] | 5 (Level 5: growth control rate is above 85%)
C/C(=N\OC(=O)[C@@H](C)O/N=C/c1cc(-n2c(=O)cc(C(F)(F)F)n(C)c2=O)c(F)cc1Cl)C1CC1 [450(R)] | 5 (Level 5: growth control rate is above 85%)
COC(=O)[C@@H](CC(C)C)O/N=C/c1cc(-n2c(=O)cc(C(F)(F)F)n(C)c2=O)c(F)cc1Cl [455(R)] | 5 (Level 5: growth control rate is above 85%)
COC(=O)[C@@H](CC1CC1)O/N=C/c1cc(-n2c(=O)cc(C(F)(F)F)n(C)c2=O)c(F)cc1Cl [462(R)] | 5 (Level 5: growth control rate is above 85%)
COC(=O)[C@H](CF)O/N=C/c1cc(-n2c(=O)cc(C(F)(F)F)n(C)c2=O)c(F)cc1Cl [463(R)] | 5 (Level 5: growth control rate is above 85%)

Same assay, conditions: Dose 30 g/ha; fresh weight control rate level

SMILES | Weeding effect in post-emergence stage, Alopecurus japonicus (level)
C/C(=N/C(=O)[C@@H](C)O/N=C/c1cc(-n2c(=O)cc(C(F)(F)F)n(C)c2=O)c(F)cc1Cl)c1ccccc1 [453(R)] | 5 (Level 5: growth control rate is above 85%)
COC(=O)[C@H](O/N=C/c1cc(-n2c(=O)cc(C(F)(F)F)n(C)c2=O)c(F)cc1Cl)C1CC1 [456(R)] | 5 (Level 5: growth control rate is above 85%)

Same assay, conditions: Dose 60 g/ha; fresh weight control rate level

SMILES | Weeding effect in post-emergence stage, Alopecurus japonicus (level)
C[C@@H](O/N=C/c1cc(-n2c(=O)cc(C(F)(F)F)n(C)c2=O)c(F)cc1Cl)C(=O)N1CCOCC1 [454(R)] | 5 (Level 5: growth control rate is above 85%)

These molecules were tested on Digitaria sanguinalis (assay: Weeding effect in post-emergence stage). Details: Dose 15 g/ha; fresh weight control rate level.
Assay type: in vivo
Outline: as §1

SMILES | Weeding effect in post-emergence stage, Digitaria sanguinalis (level)
C/C(=N\OC(=O)[C@@H](C)O/N=C/c1cc(-n2c(=O)cc(C(F)(F)F)n(C)c2=O)c(F)cc1Cl)C(C)(C)C [449(R)] | 5 (Level 5: growth control rate is above 85%)
C/C(=N\OC(=O)[C@@H](C)O/N=C/c1cc(-n2c(=O)cc(C(F)(F)F)n(C)c2=O)c(F)cc1Cl)C1CC1 [450(R)] | 5 (Level 5: growth control rate is above 85%)
COC(=O)[C@@H](CC(C)C)O/N=C/c1cc(-n2c(=O)cc(C(F)(F)F)n(C)c2=O)c(F)cc1Cl [455(R)] | 5 (Level 5: growth control rate is above 85%)
COC(=O)[C@@H](CC1CC1)O/N=C/c1cc(-n2c(=O)cc(C(F)(F)F)n(C)c2=O)c(F)cc1Cl [462(R)] | 5 (Level 5: growth control rate is above 85%)
COC(=O)[C@H](CF)O/N=C/c1cc(-n2c(=O)cc(C(F)(F)F)n(C)c2=O)c(F)cc1Cl [463(R)] | 5 (Level 5: growth control rate is above 85%)

Same assay, conditions: Dose 30 g/ha; fresh weight control rate level

SMILES | Weeding effect in post-emergence stage, Digitaria sanguinalis (level)
C/C(=N/C(=O)[C@@H](C)O/N=C/c1cc(-n2c(=O)cc(C(F)(F)F)n(C)c2=O)c(F)cc1Cl)c1ccccc1 [453(R)] | 5 (Level 5: growth control rate is above 85%)
COC(=O)[C@H](O/N=C/c1cc(-n2c(=O)cc(C(F)(F)F)n(C)c2=O)c(F)cc1Cl)C1CC1 [456(R)] | 5 (Level 5: growth control rate is above 85%)

Same assay, conditions: Dose 60 g/ha; fresh weight control rate level

SMILES | Weeding effect in post-emergence stage, Digitaria sanguinalis (level)
C[C@@H](O/N=C/c1cc(-n2c(=O)cc(C(F)(F)F)n(C)c2=O)c(F)cc1Cl)C(=O)N1CCOCC1 [454(R)] | 5 (Level 5: growth control rate is above 85%)

Each molecule was assayed on Eleusine indica (assay: Weeding effect in post-emergence stage). Details: Dose 15 g/ha; fresh weight control rate level.
Assay type: in vivo
Outline: as §1

SMILES | Weeding effect in post-emergence stage, Eleusine indica (level)
C/C(=N\OC(=O)[C@@H](C)O/N=C/c1cc(-n2c(=O)cc(C(F)(F)F)n(C)c2=O)c(F)cc1Cl)C(C)(C)C [449(R)] | 5 (Level 5: growth control rate is above 85%)
C/C(=N\OC(=O)[C@@H](C)O/N=C/c1cc(-n2c(=O)cc(C(F)(F)F)n(C)c2=O)c(F)cc1Cl)C1CC1 [450(R)] | 5 (Level 5: growth control rate is above 85%)
COC(=O)[C@@H](CC(C)C)O/N=C/c1cc(-n2c(=O)cc(C(F)(F)F)n(C)c2=O)c(F)cc1Cl [455(R)] | 5 (Level 5: growth control rate is above 85%)
COC(=O)[C@@H](CC1CC1)O/N=C/c1cc(-n2c(=O)cc(C(F)(F)F)n(C)c2=O)c(F)cc1Cl [462(R)] | 5 (Level 5: growth control rate is above 85%)
COC(=O)[C@H](CF)O/N=C/c1cc(-n2c(=O)cc(C(F)(F)F)n(C)c2=O)c(F)cc1Cl [463(R)] | 5 (Level 5: growth control rate is above 85%)

Same assay, conditions: Dose 30 g/ha; fresh weight control rate level

SMILES | Weeding effect in post-emergence stage, Eleusine indica (level)
C/C(=N/C(=O)[C@@H](C)O/N=C/c1cc(-n2c(=O)cc(C(F)(F)F)n(C)c2=O)c(F)cc1Cl)c1ccccc1 [453(R)] | 5 (Level 5: growth control rate is above 85%)
COC(=O)[C@H](O/N=C/c1cc(-n2c(=O)cc(C(F)(F)F)n(C)c2=O)c(F)cc1Cl)C1CC1 [456(R)] | 5 (Level 5: growth control rate is above 85%)

Same assay, conditions: Dose 60 g/ha; fresh weight control rate level

SMILES | Weeding effect in post-emergence stage, Eleusine indica (level)
C[C@@H](O/N=C/c1cc(-n2c(=O)cc(C(F)(F)F)n(C)c2=O)c(F)cc1Cl)C(=O)N1CCOCC1 [454(R)] | 5 (Level 5: growth control rate is above 85%)

What follows are molecules tested on Setaria viridis (assay: Weeding effect in post-emergence stage). Details: Dose 15 g/ha; fresh weight control rate level.
Assay type: in vivo
Outline: as §1

SMILES | Weeding effect in post-emergence stage, Setaria viridis (level)
C/C(=N\OC(=O)[C@@H](C)O/N=C/c1cc(-n2c(=O)cc(C(F)(F)F)n(C)c2=O)c(F)cc1Cl)C(C)(C)C [449(R)] | 5 (Level 5: growth control rate is above 85%)
C/C(=N\OC(=O)[C@@H](C)O/N=C/c1cc(-n2c(=O)cc(C(F)(F)F)n(C)c2=O)c(F)cc1Cl)C1CC1 [450(R)] | 5 (Level 5: growth control rate is above 85%)
COC(=O)[C@@H](CC(C)C)O/N=C/c1cc(-n2c(=O)cc(C(F)(F)F)n(C)c2=O)c(F)cc1Cl [455(R)] | 5 (Level 5: growth control rate is above 85%)
COC(=O)[C@@H](CC1CC1)O/N=C/c1cc(-n2c(=O)cc(C(F)(F)F)n(C)c2=O)c(F)cc1Cl [462(R)] | 5 (Level 5: growth control rate is above 85%)
COC(=O)[C@H](CF)O/N=C/c1cc(-n2c(=O)cc(C(F)(F)F)n(C)c2=O)c(F)cc1Cl [463(R)] | 5 (Level 5: growth control rate is above 85%)

Same assay, conditions: Dose 30 g/ha; fresh weight control rate level

SMILES | Weeding effect in post-emergence stage, Setaria viridis (level)
C/C(=N/C(=O)[C@@H](C)O/N=C/c1cc(-n2c(=O)cc(C(F)(F)F)n(C)c2=O)c(F)cc1Cl)c1ccccc1 [453(R)] | 5 (Level 5: growth control rate is above 85%)
COC(=O)[C@H](O/N=C/c1cc(-n2c(=O)cc(C(F)(F)F)n(C)c2=O)c(F)cc1Cl)C1CC1 [456(R)] | 5 (Level 5: growth control rate is above 85%)

Same assay, conditions: Dose 60 g/ha; fresh weight control rate level

SMILES | Weeding effect in post-emergence stage, Setaria viridis (level)
C[C@@H](O/N=C/c1cc(-n2c(=O)cc(C(F)(F)F)n(C)c2=O)c(F)cc1Cl)C(=O)N1CCOCC1 [454(R)] | 5 (Level 5: growth control rate is above 85%)

Each molecule was assayed on Echinochloa crusgalli (assay: Weeding effect in post-emergence stage). Details: Dose 15 g/ha; fresh weight control rate level.
Assay type: in vivo
Outline: as §1

SMILES | Weeding effect in post-emergence stage, Echinochloa crusgalli (level)
C/C(=N\OC(=O)[C@@H](C)O/N=C/c1cc(-n2c(=O)cc(C(F)(F)F)n(C)c2=O)c(F)cc1Cl)C(C)(C)C [449(R)] | 5 (Level 5: growth control rate is above 85%)
C/C(=N\OC(=O)[C@@H](C)O/N=C/c1cc(-n2c(=O)cc(C(F)(F)F)n(C)c2=O)c(F)cc1Cl)C1CC1 [450(R)] | 5 (Level 5: growth control rate is above 85%)
COC(=O)[C@@H](CC(C)C)O/N=C/c1cc(-n2c(=O)cc(C(F)(F)F)n(C)c2=O)c(F)cc1Cl [455(R)] | 5 (Level 5: growth control rate is above 85%)
COC(=O)[C@@H](CC1CC1)O/N=C/c1cc(-n2c(=O)cc(C(F)(F)F)n(C)c2=O)c(F)cc1Cl [462(R)] | 5 (Level 5: growth control rate is above 85%)
COC(=O)[C@H](CF)O/N=C/c1cc(-n2c(=O)cc(C(F)(F)F)n(C)c2=O)c(F)cc1Cl [463(R)] | 5 (Level 5: growth control rate is above 85%)

Same assay, conditions: Dose 30 g/ha; fresh weight control rate level

SMILES | Weeding effect in post-emergence stage, Echinochloa crusgalli (level)
C/C(=N/C(=O)[C@@H](C)O/N=C/c1cc(-n2c(=O)cc(C(F)(F)F)n(C)c2=O)c(F)cc1Cl)c1ccccc1 [453(R)] | 5 (Level 5: growth control rate is above 85%)
COC(=O)[C@H](O/N=C/c1cc(-n2c(=O)cc(C(F)(F)F)n(C)c2=O)c(F)cc1Cl)C1CC1 [456(R)] | 5 (Level 5: growth control rate is above 85%)

Same assay, conditions: Dose 60 g/ha; fresh weight control rate level

SMILES | Weeding effect in post-emergence stage, Echinochloa crusgalli (level)
C[C@@H](O/N=C/c1cc(-n2c(=O)cc(C(F)(F)F)n(C)c2=O)c(F)cc1Cl)C(=O)N1CCOCC1 [454(R)] | 5 (Level 5: growth control rate is above 85%)
